Data from patent US12662473B2, “Inhibitors for programmed cell necrosis and preparation method therefor and use thereof” (SHANGHAI INSTITUTE OF ORGANIC CHEMISTRY, CHINESE ACADEMY OF …, priority 2019, dated 2026).

Legend:
RIPK1 (S161A) = assay: Effect of RIPK1 S161A mutation on compound activity (293T overexpression; S161A MEFs cell death with TNFα and 5z7); format: cell-based, murine; settings: FIG. 5
Source text: The biological test protocol used in this experiment was to test the effect of mutation of serine at position 161 of RIPK1 to alanine on the activity of compound QY-1-98. The experiment was verified by two aspects. On the one hand, after RIPK1 was overexpressed in 293T cells, RIPK1 would be activated by autophosphorylation, and the activity of small molecules to inhibit the phosphorylation of RIPK1 was detected at this time. On the other hand, in murine-derived MEFs cells with RIPK1 knockout, and RIPK1 (S161A) put back, RIPK1-dependent cell apoptosis can be induced by using TNFα and 5z7 (TAK1 inhibitor), and the effect of the compound to inhibit cell death was detected at this time.
1. 293T cells overexpressing RIPK1 experiment: RIPK1 plasmid with N-terminal 3×FLAG was constructed on PcDNA vector. 293T cells were digested, and then diluted to 8×10^5/ml. 1 ml of cells were added to each well of a 12-well cell culture plate, and the plate was placed in a cell culture incubator (37° C., 5% CO2) for 12 hours before transfection. […] After cooling, the samples were detected by western-blot after electrophoresis on SDS-PAGE gel (9%). […] The plate was placed in cell incubator (37° C., 5% CO2) for 14 h, 15 μl of Cell Titer-Glo solution was added to each well, the mixture was incubated at room temperature for 30 min, and the luminescence value was detected to measure the level of intracellular ATP. […]

[1] = tested on: RIPK1 phosphorylation and MLKL oligomerization in FADD deficient Jurkat cells; assay: Western blot of key proteins in TNFα-induced FADD deficient Jurkat cell programmed necrosis pathway; format: cell-based, human; settings: TNFα-stimulated FADD deficient Jurkat cells, FIG. 2
Source text: In order to verify whether the compounds of the present invention can inhibit programmed cell death by inhibiting the activity of RIPK1, and to detect the activation of downstream proteins of programmed necrosis pathway, TNFα was used to stimulate FADD deficient Jurkat to produce programmed necrosis, and the compounds of the present invention were used to treat the cells at the same time. Cells were harvested after a period of time to detect phosphorylation of RIPK1 and oligomerization of MLKL using western blot.
FADD deficient Jurkat cells (human peripheral blood leukemia T cell line) were cultured in vitro. […] The BCA protein quantification kit was used to detect the protein content of each group, and PIPA lysis buffer was used to adjust the protein amount to make the final volume of 100 μL. […]
25 μL of 5* protein loading buffer was added to 100 μL of cell lysate, and the mixture was heated at 95° C. for 10 min After the samples were cooled, electrophoresis was carried out using SDS-PAGE (9%) gel at 60V, and then switched to 120V after 30 min until the leading band was electrophoresed to the bottom of the gel. […] The resulting sample was incubated with ECL luminescent solution and detected the luminescent signal.

Cc1noc([C@@H]2CCCN2C(=O)C(C)(C)Oc2ccc(Cl)cc2)n1 [QY-1-98]
inhibition of programmed cell necrosis after mutation of serine 161 of RIPK1 to alanine (RIPK1 (S161A)): can still inhibit the programmed cells necrosis | oligomerization of MLKL [1]: can inhibit | phosphorylation of RIPK1 [1]: can inhibit the phosphorylation of RIPK1
